One test has as its target human β‐FXIIa (Homo sapiens, UniProt P00748). Type of test: biochemical.
In test [1] the target is human α‐thrombin (factor IIa) (Homo sapiens, UniProt P00734). It counts as biochemical.
For a further test, the target named is human Factor Xa (Homo sapiens, UniProt P00742). Put plainly: FXa inhibition assay, fluorogenic substrate Boc‐Ile‐Glu‐Gly‐Arg‐AMC. Type of test: biochemical.
Another test concerns the target porcine trypsin (Sus scrofa, UniProt P00761). Put plainly: Trypsin inhibition assay, fluorogenic substrate Z‐Gly‐Gly‐Arg‐AMC. It counts as biochemical.
Another test deals with FXIIa (Homo sapiens, UniProt P00748). Put plainly: Medium‐throughput screening. It counts as biochemical. As to conditions: read-out: Inhibition @100 nM [in MTS] FXIIa.
Sequence of FXIIa (P00748 373-615 limits assumed, other chains not shown): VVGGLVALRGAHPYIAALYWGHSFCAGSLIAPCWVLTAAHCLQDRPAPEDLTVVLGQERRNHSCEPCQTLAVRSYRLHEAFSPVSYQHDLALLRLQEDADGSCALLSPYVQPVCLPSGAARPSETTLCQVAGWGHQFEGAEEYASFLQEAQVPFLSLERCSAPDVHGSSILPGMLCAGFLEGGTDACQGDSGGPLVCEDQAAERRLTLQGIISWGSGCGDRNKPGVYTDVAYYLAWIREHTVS
A further test has as its target thrombin (FIIa) (Homo sapiens, UniProt P00734). In words: Medium‐throughput screening. It counts as biochemical. As to conditions: read-out: Inhibition @100 nM [in MTS] FIIa.
A further test concerns the target human plasma β‐FXIIa (Homo sapiens, UniProt P00748). Put plainly: Mass‐shift analysis of the covalent FXIIa‐inhibitor complex by SEC/ESI‐MS. Particulars: 15 min incubation, enzyme:inhibitor 1 : 20. It counts as binding. Background: Size exclusion chromatography separates by hydrodynamic size, large species first.

Each structure is given as a SMILES string.

Sequence of porcine trypsin (P00761 9-231): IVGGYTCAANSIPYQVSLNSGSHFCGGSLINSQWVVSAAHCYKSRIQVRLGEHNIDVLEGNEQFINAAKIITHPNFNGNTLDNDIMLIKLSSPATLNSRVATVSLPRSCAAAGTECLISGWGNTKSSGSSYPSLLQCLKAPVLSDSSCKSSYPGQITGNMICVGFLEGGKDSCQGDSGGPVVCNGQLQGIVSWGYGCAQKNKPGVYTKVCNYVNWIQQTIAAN
Sequence of human β‐FXIIa (P00748 373-615 limits assumed, other chains not shown): as the sequence (P00748 373-615 limits assumed, other chains not shown) above
Sequence of human plasma β‐FXIIa (P00748 373-615 limits assumed, other chains not shown): as above
Sequence of human Factor Xa (P00742 235-488 limits assumed): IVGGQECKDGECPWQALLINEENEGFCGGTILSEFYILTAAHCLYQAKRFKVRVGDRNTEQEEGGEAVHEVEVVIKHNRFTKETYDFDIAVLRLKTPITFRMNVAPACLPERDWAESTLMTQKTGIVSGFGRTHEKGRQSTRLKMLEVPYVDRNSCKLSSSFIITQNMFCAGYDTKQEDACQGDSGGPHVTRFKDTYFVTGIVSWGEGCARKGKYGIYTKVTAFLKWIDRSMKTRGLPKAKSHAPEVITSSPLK
Sequence of human Factor Xa (P00742 41-179 limits assumed): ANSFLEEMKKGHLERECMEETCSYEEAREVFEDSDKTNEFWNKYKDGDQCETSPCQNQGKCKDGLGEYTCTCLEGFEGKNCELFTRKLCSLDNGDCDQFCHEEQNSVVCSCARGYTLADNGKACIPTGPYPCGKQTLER

Turning to `Nc1nc(-c2ccc3ccccc3n2)nn1C(=O)[C@H]1CCCc2ccccc21` [33 g, (S)‐(5‐Amino‐3‐(quinolin‐2‐yl)‐1H‐1,2,4‐triazol‐1‐yl)(1,2,3,4‐tetrahydronaphthalen‐1‐yl)‐methanone], the 50% inhibitory concentration (IC50) is 33 ± 1 nM on human β‐FXIIa, 1010 ± 155 nM in test [1], above 5 µM against human Factor Xa and above 5 µM against porcine trypsin. For the same compound, the inhibition at 0.1 µM at FXIIa turned out to be 94%; on thrombin (FIIa) it was 5%. Moreover, the “mass shift of FXIIa (acyl moiety adduct)” value on human plasma β‐FXIIa was 158.2 Da.

A word on the IC50: it is the concentration that gives 50% inhibition. A lower IC50 goes with greater potency. As a reminder, the inhibition is how much of the control response was suppressed.

The values are drawn from paper PMC9292294 (Chemmedchem, 2021).
